73 compounds from patent US7737155B2, “Nitrogen-containing heterocyclic compounds and methods of use thereof” (Schering Corporation, priority 2005, dated 2010) can be followed below.

A value given as a limit tells only on which side of the number the result lay.

The target in one experiment is recombinant human nicotinic acid receptor (NAR) (Homo sapiens, UniProt Q8TDS4). Put plainly: Nicotinic Acid Receptor Assay: inhibition of forskolin-stimulated cAMP accumulation in CHO cells (MesoScale Discovery cAMP kit). The format is cell-based. The following applies: CHO cells expressing recombinant human NAR; forskolin-stimulated cAMP; read-out: NA EC50 camp. As for the experimental part: The nicotinic acid receptor agonist activity of the inventive compounds was determined by following the inhibition of forskolin-stimulated cAMP accumulation in cells using the MesoScale Discovery cAMP detection kit following the manufacture's protocol. Briefly, Chinese Hamster Ovary (CHO) cells expressing recombinant human nicotinic acid receptor (NAR) were harvested enzymatically, washed 1× in phosphate buffered saline (PBS) and resuspended in PBS containing 0.5 mM IBMX at 3×10^6 cells/mL. Ten μL of cell suspension was added to each well of a 384-well plate which contained 10 μL of test compounds. Test compounds were diluted with PBS containing 6 μM of forskolin. Plates were incubated for 30 minutes at room temperature after the addition of cells. Lysis buffer containing cAMP-Tag was added to each well (10 μL/well) as per the manufacturer's protocol. Plates were then incubated from 45 minutes to overnight. Prior to reading, 10 μL of read buffer was added to each well, and the plate was read in a Sector 6000 plate imager. The signal was converted to cAMP concentration using a standard curve run on each plate.
recombinant human nicotinic acid receptor (NAR), sequence (Q8TDS4 whole entry): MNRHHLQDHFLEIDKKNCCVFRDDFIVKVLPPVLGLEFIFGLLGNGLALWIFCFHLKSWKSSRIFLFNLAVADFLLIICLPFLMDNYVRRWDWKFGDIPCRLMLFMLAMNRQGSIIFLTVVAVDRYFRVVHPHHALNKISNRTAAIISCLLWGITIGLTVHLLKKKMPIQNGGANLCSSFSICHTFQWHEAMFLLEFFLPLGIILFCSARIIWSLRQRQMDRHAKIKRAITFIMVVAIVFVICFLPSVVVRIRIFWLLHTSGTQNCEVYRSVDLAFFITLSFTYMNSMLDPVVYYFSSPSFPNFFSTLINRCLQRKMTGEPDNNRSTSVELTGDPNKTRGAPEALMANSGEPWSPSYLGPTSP
For the compound `CCc1cc(=O)oc2nc(OCc3cccc(C(F)(F)F)n3)[nH]c(=O)c12` [Compound 568], the EC50 is 100 to 1000 nM. Regarding `CCc1cc(=O)oc2nc(OCc3ccccc3-c3cccc(C(=O)NC)c3)[nH]c(=O)c12` [Compound 551], the half-maximal effective concentration (EC50) fell in the range of 100 to 1000 nM. On the same count and under the same terms, for `CCc1noc(C)c1COc1nc2oc(=O)cc(CCC3CCCC3)c2c(=O)[nH]1` [Compound 689] the value was 100 to 1000 nM.

Consider `CCCCc1c(-c2ccc(F)cc2)c(=O)oc2[nH]c(=O)[nH]c(=O)c12` [Compound 706], for which the EC50 was more than 1000 nM. The same measure, in the same setting: for `O=c1[nH]c(=O)c2c(CCCOC3CCC3)cc(=O)oc2[nH]1` [Compound 290] the value was 100 to 1000 nM; for `CCCCc1c(-c2ccc(C#N)cc2)c(=O)oc2[nH]c(=O)[nH]c(=O)c12` [Compound 709], more than 1000 nM.

For `O=c1[nH]c(=O)c2c(C3CCCCC3)cc(=O)oc2[nH]1` [Compound 212], the EC50 lay in the range of 100 to 1000 nM. In the case of `O=c1[nH]c(=O)c2c(CCCC3CCC3)cc(=O)oc2[nH]1` [Compound 286], the EC50 is 0.001 to 100 nM. Still for that read-out and setting: for `CCc1cc(=O)oc2nc(OCc3c(-c4c(Cl)cccc4Cl)noc3C)[nH]c(=O)c12` [Compound 647] the value was 100 to 1000 nM; for `CC#CCCc1cc(=O)oc2[nH]c(=O)[nH]c(=O)c12` [Compound 217], more than 1000 nM; for `O=c1cc(CCCCc2cccs2)c2c(=O)n(C3CCC3)c(=O)[nH]c2o1` [Compound 280], more than 1000 nM. Take `CCc1cc(=O)oc2nc(OCc3ocnc3C)[nH]c(=O)c12` [Compound 513]: the EC50 fell in the range of 100 to 1000 nM.

In the case of `CCc1cc(=O)oc2nc(OCCSc3ccccn3)[nH]c(=O)c12` [Compound 655], the EC50 lay in the range of 100 to 1000 nM. Same read-out and setting: for `O=c1cc(CCCCC2CC2)c2c(=O)n(C3CCC3)c(=O)[nH]c2o1` [Compound 200] the value was 100 to 1000 nM.

For `C=COCCOc1nc2oc(=O)cc(CC)c2c(=O)[nH]1` [Compound 581], the half-maximal effective concentration (EC50) was more than 1000 nM.

For the compound `CCCCCc1cc(=O)oc2nc(ONC(=O)OCC)[nH]c(=O)c12` [Compound 695], the EC50 is 0.001 to 100 nM.

Consider `CCc1cc(=O)oc2nc(OCCOC3CCCC3)[nH]c(=O)c12` [Compound 606], for which the half-maximal effective concentration (EC50) was more than 1000 nM. Still for that read-out and setting: the figure for `O=c1cc(CCC2CCCC2)c2c(=O)[nH]c(=O)n(C3CCC3)c2o1` [Compound 242] is more than 1000 nM; for `CCc1cc(=O)oc2nc(OCCOC(C)C)[nH]c(=O)c12` [Compound 595] it is 100 to 1000 nM; for `CCc1cc(=O)oc2nc(OCC(=O)N(CC)CC)[nH]c(=O)c12` [Compound 621] it is 100 to 1000 nM. On the same count and under the same terms, for `CCc1cc(=O)oc2nc(OCc3cc4cc(C)ccc4s3)[nH]c(=O)c12` [Compound 654] the value was 0.001 to 100 nM; for `O=c1[nH]c(=O)c2c(CCc3cccs3)cc(=O)oc2[nH]1` [Compound 229], 0.001 to 100 nM; for `CCc1cc(=O)oc2nc(OCc3ccccc3-c3cccc(C(=O)N(C)C)c3)[nH]c(=O)c12` [Compound 552], 100 to 1000 nM.

Consider `CCOC(=O)COc1nc2oc(=O)cc(CC)c2c(=O)[nH]1` [Compound 519], for which the EC50 is more than 1000 nM. Same read-out and setting: the figure for `CCc1cc(=O)oc2nc(OCc3ccncc3Cl)[nH]c(=O)c12` [Compound 629] is 100 to 1000 nM; for `CC(C)CCc1cc(=O)oc2[nH]c(=O)n(CC3CC3)c(=O)c12` [Compound 260] it is more than 1000 nM. Same read-out and setting: for `CCc1cc(=O)oc2nc(OCc3ccncc3)[nH]c(=O)c12` [Compound 523] the value was 0.001 to 100 nM; for `CCc1cc(=O)oc2nc(OCc3cc4c(C)nn(C)c4s3)[nH]c(=O)c12` [Compound 646], more than 1000 nM. For `CCc1cc(=O)oc2nc(OCc3sccc3-n3cccc3)[nH]c(=O)c12` [Compound 533], the EC50 is more than 1000 nM. On the same count and under the same terms, for `CN(C)CCOc1nc2oc(=O)cc(Cc3cccc(F)c3)c2c(=O)[nH]1` [Compound 683] the value was more than 1000 nM; for `CCc1cc(=O)oc2nc(OC(C)c3ccc(-c4ccccc4)cc3F)[nH]c(=O)c12` (stereo not shown) [Compound 569], 0.001 to 100 nM; for `CCc1cc(=O)oc2nc(OCC(C)(O)c3ccccc3)[nH]c(=O)c12` (stereo not shown) [Compound 599], 100 to 1000 nM.

In the case of `CCc1cc(=O)oc2nc(OCc3ccccc3C#N)[nH]c(=O)c12` [Compound 611], the EC50 was more than 1000 nM.

As for `CCc1cc(=O)oc2nc(OCc3cccc(-c4cccc(OC)c4)c3)[nH]c(=O)c12` [Compound 561], the EC50 was in the range of 100 to 1000 nM. With `CCc1cc(=O)oc2nc(OCc3cc(F)cc(F)c3)[nH]c(=O)c12` [Compound 506], the half-maximal effective concentration (EC50) was more than 1000 nM. The same measure, in the same setting: for `CCC(C)CCc1cc(=O)oc2[nH]c(=O)[nH]c(=O)c12` (stereo not shown) [Compound 247] the value was 0.001 to 100 nM; for `CCc1cc(=O)oc2nc(OCC3CCCO3)[nH]c(=O)c12` (stereo not shown) [Compound 601], more than 1000 nM. In the case of `CCc1cc(=O)oc2nc(OCc3cccc(-n4cccc4)c3)[nH]c(=O)c12` [Compound 612], the EC50 was more than 1000 nM. The same measure, in the same setting: the figure for `CCc1cc(=O)oc2nc(OCc3cc(Cl)cc(Cl)c3)[nH]c(=O)c12` [Compound 503] is 100 to 1000 nM; for `CCn1c(=O)[nH]c(=O)c2c(CCC3CC3)cc(=O)oc21` [Compound 277] it is more than 1000 nM. Same read-out and setting: for `CCc1cc(=O)oc2nc(OCc3cccc(-c4cccnc4)c3)[nH]c(=O)c12` [Compound 563] the value was 100 to 1000 nM; for `CCc1cc(=O)oc2nc(OCc3cc(C)cc(C)c3)[nH]c(=O)c12` [Compound 505], 100 to 1000 nM; for `CCCCc1c(-c2ccc(NC(C)=O)cc2)c(=O)oc2[nH]c(=O)[nH]c(=O)c12` [Compound 710], more than 1000 nM. Still for that read-out and setting: the figure for `O=c1[nH]c(=O)c2c(CCC3CCC3)c(-c3ccc(F)cc3)c(=O)oc2[nH]1` [Compound 700] is more than 1000 nM. Consider `CCCCc1cc(=O)oc2c1c(=O)[nH]c(=O)n2CC1CC1` [Compound 257], for which the concentration for a half-maximal effect (EC50) was more than 1000 nM. Consider `CCc1cc(=O)oc2nc(OCc3ccccc3-c3ccc(CO)cc3)[nH]c(=O)c12` [Compound 548], for which the EC50 fell in the range of 100 to 1000 nM. Still for that read-out and setting: the figure for `Cc1cc(=O)oc2nc(OCc3csc4ccccc34)[nH]c(=O)c12` [Compound 690] is more than 1000 nM; for `CCc1cc(=O)oc2nc(OCc3ccccc3-c3ccc(CO[Si](C)(C)C(C)(C)C)cc3)[nH]c(=O)c12` [Compound 651] it is 100 to 1000 nM. For `CCC#CC(C)Oc1nc2oc(=O)cc(CC)c2c(=O)[nH]1` (stereo not shown) [Compound 639], the 50% effective concentration (EC50) was 100 to 1000 nM.

Consider `CCc1cc(=O)oc2nc(OCCN3CCCCC3)[nH]c(=O)c12` [Compound 578], for which the EC50 is more than 1000 nM.

As to `CCCCc1cc(=O)oc2nc(OCC#CC(C)O)[nH]c(=O)c12` (stereo not shown) [Compound 680], the 50% effective concentration (EC50) fell in the range of 0.001 to 100 nM. Still for that read-out and setting: the figure for `CCc1cc(=O)oc2nc(OCc3nccc4ccccc34)[nH]c(=O)c12` [Compound 528] is 100 to 1000 nM; for `CCc1c(-c2ccccc2)c(=O)oc2[nH]c(=O)n(C3CCC3)c(=O)c12` [Compound 203] it is more than 1000 nM. Same read-out and setting: for `CCc1cc(=O)oc2nc(OC[C@H](O)c3ccccc3)[nH]c(=O)c12` [Compound 633] the value was 100 to 1000 nM; for `CCc1cc(=O)oc2nc(OCc3ccncc3NC(=O)C(C)(C)C)[nH]c(=O)c12` [Compound 659], more than 1000 nM. The same measure, in the same setting: the figure for `CCc1cc(=O)oc2nc(OCc3ccc(-c4cccc(OC)c4)cc3F)[nH]c(=O)c12` [Compound 572] is 100 to 1000 nM; for `CCc1cc(=O)oc2nc(OCC#CC(C)OC)[nH]c(=O)c12` (stereo not shown) [Compound 672] it is 100 to 1000 nM.

Staying with this experiment, now noted: NA EC50 camp (nM), CHO cells expressing recombinant human NAR; forskolin-stimulated cAMP.
Turning to `CCc1cc(=O)oc2nc(OCC#CCO)[nH]c(=O)c12` [Compound 631], the 50% effective concentration (EC50) is 100 to 1000 nM. Take `CCc1cc(=O)oc2nc(OCc3ccc(-c4cncnc4)cc3F)[nH]c(=O)c12` [Compound 575]: the concentration giving a half-maximal response (EC50) fell in the range of 100 to 1000 nM.

The same experiment, now with this note: NA EC50 camp, inhibition of forskolin-stimulated cAMP accumulation, CHO cells expressing recombinant human NAR.
Regarding `O=c1cc(CCCC2CC2)c2c(=O)[nH]c(C(F)F)nc2o1` [Compound 740], the EC50 was 130 nM.

Still in this experiment, the particulars now being: inhibition of forskolin-stimulated cAMP accumulation, CHO cells expressing recombinant human NAR; read-out: NA EC50 camp.
As to `CCCCc1cc(=O)oc2nc(C(F)(F)F)[nH]c(=O)c12` [Compound 764], the 50% effective concentration (EC50) was determined as 8920 nM. Take `O=c1cc(CCC2CC2)c2c(=O)[nH]c(OCC#CC3CC3)nc2o1` [Compound 722]: the concentration for a half-maximal effect (EC50) was 111 nM.

Consider `COn1c(=O)nc(OCCF)c2c(CCC3CCC3)cc(=O)oc21` [Compound 826], for which the EC50 amounted to 3250 nM. On the same count and under the same terms, for `CC#CCOc1nc2oc(=O)cc(CCCC3CC3)c2c(=O)[nH]1` [Compound 717] the value was 259 nM; for `CCCCCCc1cc(=O)oc2[nH]c(=O)nc(OCF)c12` [Compound 833], 511 nM; for `O=c1cc(CCC2CC2)c2c(=O)n(C3CCC3)c(=O)[nH]c2o1` [Compound 780], 36 nM. Regarding `CCCc1cc(=O)oc2[nH]c(=O)n(CF)c(=O)c12` [Compound 817], the EC50 was determined as 1450 nM.

For `CCCCc1cc(=O)oc2[nH]c(=O)nc(OCC(F)(F)F)c12` [Compound 829], the EC50 worked out at 882 nM. For `O=c1[nH]c(=O)c2c(Cc3ccsc3)cc(=O)oc2[nH]1` [Compound 135], the half-maximal effective concentration (EC50) amounted to 4.8 nM. Same read-out and setting: for `O=c1cc(CCCC2CC2)c2c(=O)n(C3CCC3)c(=O)[nH]c2o1` [Compound 784] the value was 17.9 nM; for `CCc1cc(=O)oc2[nH]c(=O)n(CCF)c(=O)c12` [Compound 819], 1540 nM. Still for that read-out and setting: the figure for `O=c1cc(CCC2CCCC2)c2c(=O)[nH]c(C(F)(F)F)nc2o1` [Compound 763] is 7730 nM; for `CCc1cc(=O)oc2nc(OCC#CC(C)O)[nH]c(=O)c12` (stereo not shown) [Compound 729] it is 49.9 nM.
